Measurements: patent US20170050980A1, “OXADIAZINE COMPOUNDS AND METHODS OF USE THEREOF” (FORUM Pharmaceuticals Inc., priority 2015, published 2017)

Test system: Aβ42
Assay: In vitro cell screening assay; quantification of Aβ (1-42) peptide by sandwich ELISA
Type: cell-based
Settings: Human neuroglioma H4 cells stably expressing human wild type APP751; compounds 0.003-10 μM, incubated overnight (16-18 h); Aβ42 in supernatant by sandwich ELISA; normalized to DMSO and DAPT; read-out: Aβ42 H4 Prot Fre IC50
Outline: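 Stable H4 neuroglioma line expressing human wild-type APP751; compounds 0.003-10 μM (0.33% DMSO final) added in Pro293 medium 6 h after plating, incubated overnight (16-18 h) at 37 °C. Secreted Aβ42 measured in supernatant by C-terminal-capture sandwich ELISA with 4G8-HRP detection; IC50 by sigmoidal fit, normalized to DMSO and DAPT.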

Row | SMILES | IC50
1 | COc1nc(C2=NOC(C)C(c3cccc(Cl)c3)N2)ccc1-n1cnc(Cl)c1 (single isomer, unassigned; (-)) [Example 47A, (−)-3-(5-(4-chloro-1H-imidazol-1-yl)-6-methoxypyridin-2-yl)-5-(3-chlorophenyl)-6-methyl-5,6-dihydro-4H-1,2,4-oxadiazine] | > 3000 nM
2 | COc1nc(C2=NOC(C)C(c3cn(C)c4ncc(C5CC5)cc34)N2)ccc1-n1cnc(C)c1 (single isomer, unassigned; (-)) [Example 56B, (−)-5-(5-cyclopropyl-1-methyl-1H-pyrrolo [2,3-b]pyridin-3-yl)-3-(6-methoxy-5-(4-methyl-1H-imidazol-1-yl)pyridin-2-yl)-6-methyl-5,6-dihydro-4H-1,2,4-oxadiazine] | 13 nM
3 | COc1nc(C2=NOC(C3CC3)C(c3cn(C)c4ncc(Cl)cc34)N2)ccc1-n1cnc(C)c1 (stereo not drawn) [57B or 58B, (−)-(cis)-5-(5-chloro-1-methyl-1H-pyrrolo[2,3-b]pyridin-3-yl)-6-cyclopropyl-3-(6-methoxy-5-(4-methyl-1H-imidazol-1-yl)pyridin-2-yl)-5,6-dihydro-4H-1,2,4-oxadiazine] | 6.7 nM
4 | COc1nc(C2=NOC(C3CC3)C(c3cc4ccccc4o3)N2)ccc1-n1cnc(C)c1 (single isomer, unassigned; (+)) [Example 61A, (+)-5-(benzofuran-2-yl)-6-cyclopropyl-3-(6-methoxy-5-(4-methyl-1H-imidazol-1-yl)pyridin-2-yl)-5,6-dihydro-4H-1,2,4-oxadiazine] | 16.8 nM
5 | COc1nc(C2=NOC(C)C(c3ccc(Cl)cc3)N2)ccc1-c1ccnc(C)c1 (single isomer, unassigned; (-)) [Example 48A, (−)-5-(4-chlorophenyl)-3-(2-methoxy-2′-methyl-[3,4′-bipyridin]-6-yl)-6-methyl-5,6-dihydro-4H-1,2,4-oxadiazine] | 438 nM
6 | COc1nc(C2=NOC(C)(C)C(c3ccccc3)N2)ccc1-n1cnc(C)c1 (single isomer, unassigned; (+)) [Example 22B, (+)-3-[6-methoxy-5-(4-methyl-1H-imidazol-1-yl)pyridin-2-yl]-6,6-dimethyl-5-phenyl-5,6-dihydro-4H-1,2,4-oxadiazine] | 75 nM
7 | COc1nc(C2=NOC(C)C(c3ccc(Cl)c(C(F)F)c3)N2)ccc1-n1cnc(C)c1 (single isomer, unassigned; (-)) [Example 55B, (−)-5-(4-chloro-3-(difluoromethyl)phenyl)-3-(6-methoxy-5-(4-methyl-1H-imidazol-1-yl)pyridin-2-yl)-6-methyl-5,6-dihydro-4H-1,2,4-oxadiazine] | 352 nM
8 | COc1nc(C2=NOC(C)C(c3cc4ccc(Cl)cc4o3)N2)ccc1-n1cnc(C)c1 (single isomer, unassigned) [Example 46D, 5-(6-chlorobenzofuran-2-yl)-3-(6-methoxy-5-(4-methyl-1H-imidazol-1-yl)pyridin-2-yl)-6-methyl-5,6-dihydro-4H-1,2,4-oxadiazine] | 2.8 nM
9 | COc1nc(C2=NOCC(c3cn(C)c4ccc(C5CCOCC5)cc34)N2)ccc1-n1cnc(C)c1 (single isomer, unassigned; (-)) [Example 29A, (−)-3-(6-methoxy-5-(4-methyl-1H-imidazol-1-yl)pyridin-2-yl)-5-(1-methyl-5-(tetrahydro-2H-pyran-4-yl)-1H-indol-3-yl)-5,6-dihydro-4H-1,2,4-oxadiazine] | 663 nM
10 | COc1nc(C2=NOC(C)C(c3cn(C)c4ccc(F)c(F)c34)N2)ccc1-n1cnc(C)c1 (single isomer, unassigned; (-)) [Example 52A, (−)-5-(4,5-difluoro-1-methyl-1H-indol-3-yl)-3-(6-methoxy-5-(4-methyl-1H-imidazol-1-yl)pyridin-2-yl)-6-methyl-5,6-dihydro-4H-1,2,4-oxadiazine] | 84 nM
11 | COc1nc(C2=NOC(C)C(c3cn(C)c4ccc(F)c(F)c34)N2)ccc1-n1cnc(C)c1 (single isomer, unassigned; (+)) [Example 52B, (+)-5-(4,5-difluoro-1-methyl-1H-indol-3-yl)-3-(6-methoxy-5-(4-methyl-1H-imidazol-1-yl)pyridin-2-yl)-6-methyl-5,6-dihydro-4H-1,2,4-oxadiazine] | 2.9 nM
12 | COc1nc(C2=NO[C@@H](C)[C@@H](c3ccc(Cl)cc3)N2)ccc1-n1cnc(C)c1 [Example 18A, (−)-(5R,6S)-5-(4-chlorophenyl)-3-[6-methoxy-5-(4-methyl-1H-imidazol-1-yl)pyridin-2-yl]-6-methyl-5,6-dihydro-4H-1,2,4-oxadiazine] | 2220 nM
13 | COc1nc(C2=NOC(C)C(c3cn(C)c4ncc(F)c(F)c34)N2)ccc1-n1cnc(C)c1 (single isomer, unassigned; (+)) [Example 51D, (+)-5-(4,5-difluoro-1-methyl-1H-pyrrolo [2,3-b]pyridin-3-yl)-3-(6-methoxy-5-(4-methyl-1H-imidazol-1-yl)pyridin-2-yl)-6-methyl-5,6-dihydro-4H-1,2,4-oxadiazine] | 68.9 nM
14 | COc1nc(C2=NOC(C)C(c3cn(C)c4ccc(F)c(F)c34)N2)ccc1-n1cnc(C)c1 (single isomer, unassigned; (-)) [Example 52D, (−)-5-(4,5-difluoro-1-methyl-1H-indol-3-yl)-3-(6-methoxy-5-(4-methyl-1H-imidazol-1-yl)pyridin-2-yl)-6-methyl-5,6-dihydro-4H-1,2,4-oxadiazine] | 401 nM
15 | COc1nc(C2=NOC(C)C(c3cn(C)c4cc(F)c(F)cc34)N2)ccc1-n1cnc(C)c1 (single isomer, unassigned; (+)) [Example 39A, (+)-5-(5,6-difluoro-1-methyl-1H-indol-3-yl)-3-(6-methoxy-5-(4-methyl-1H-imidazol-1-yl)pyridin-2-yl)-6-methyl-5,6-dihydro-4H-1,2,4-oxadiazine] | 5.4 nM
16 | COc1nc(C2=NOC(C)C(c3cn(C)c4ncc(F)c(F)c34)N2)ccc1-n1cnc(C)c1 (single isomer, unassigned; (+)) [Example 51A, (+)-5-(4,5-difluoro-1-methyl-1H-pyrrolo [2,3-b]pyridin-3-yl)-3-(6-methoxy-5-(4-methyl-1H-imidazol-1-yl)pyridin-2-yl)-6-methyl-5,6-dihydro-4H-1,2,4-oxadiazine] | 11.7 nM
17 | COc1nc(C2=NOC(C)(C)C(c3ccccc3)N2)ccc1-n1cnc(C)c1 (single isomer, unassigned; (-)) [Example 22A, (−)-3-[6-methoxy-5-(4-methyl-1H-imidazol-1-yl)pyridin-2-yl]-6,6-dimethyl-5-phenyl-5,6-dihydro-4H-1,2,4-oxadiazine] | > 3000 nM
18 | COc1nc(C2=NOC(C)C(c3c4n(c5ccc(Cl)cc35)CCOC4)N2)ccc1-n1cnc(C)c1 (single isomer, unassigned; (-)) [Example 50C, (−)-8-chloro-10-(3-(6-methoxy-5-(4-methyl-1H-imidazol-1-yl)pyridin-2-yl)-6-methyl-5,6-dihydro-4H-1,2,4-oxadiazin-5-yl)-3,4-dihydro-1H-[1,4] oxazino [4,3-a] indole] | 352 nM
19 | COc1nc(C2=NOCC(c3c4n(c5ccc(Cl)cc35)CCOC4)N2)ccc1-n1cnc(C)c1 (single isomer, unassigned; (-)) [Example 28B, (−)-8-chloro-10-(3-(6-methoxy-5-(4-methyl-1H-imidazol-1-yl)pyridin-2-yl)-5,6-dihydro-4H-1,2,4-oxadiazin-5-yl)-3,4-dihydro-1H-[1,4]oxazino[4,3-a]indole] | 61.8 nM
